According to patent publication US9765105B2, “Macrolide compound” (Pulike Biological Engineering, Inc., priority 2013, dated 2017):

What was measured:
[1] = system: Streptococcus pneumoniae CMCC 31203; assay: in vivo antibacterial test, survival of infected mice; set-up: species or system BALB/c mice; settings: mice infected i.p. with Streptococcus pneumoniae; 5 mg per kg subcutaneous for 3 consecutive days; observed until the seventh day
[2] = acute oral toxicity test, LD50 by improved karber method; settings: for LD50 at 7 days: both, Konmin, mouse, in vivo, po
[3] = system: Actinobacillus pleuropneumoniae CVCC262; assay: in vitro susceptibility, MIC by mini broth dilution; assay type: cell-based; settings: strain CVCC262
Summary of the method: (§1)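 MICs determined by mini broth dilution following NCCLS standards, using two-fold serial dilutions of compound in DMSO across 11 gradients, in duplicate rows. Strains were revived and subcultured at 35 °C for 20 h. Bacterial suspension was diluted 1:200 in liquid medium.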

[4] = system: Streptococcus equines CVCC556; assay: as above; assay type: cell-based; settings: strain CVCC556
Summary of the method: as §1

[5] = system: Pasteurella multocida CVCC399; assay: as above; assay type: cell-based; settings: strain CVCC399
Summary of the method: as §1

Haemophilus parasuis = assay: as above; assay type: cell-based
Summary of the method: as §1

[6] = system: Staphylococcus aureus CVCC26003; assay: as above; assay type: cell-based; settings: strain CVCC26003
Summary of the method: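 MICs were determined by mini broth dilution under NCCLS standards in CAMHB, using revived S. aureus CVCC26003 subcultured 20 h at 35° C. Compounds were two-fold serially diluted in DMSO across 11 wells, with duplicate rows. Bacterial suspension was diluted 1:200 in medium before inoculation.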

Row | MIC values, Actinobacillus pleuropneumoniae CVCC262 [3] [ug/mi] | MIC values, Streptococcus equines CVCC556 [4] [ug/mi] | MIC values, Pasteurella multocida CVCC399 [5] [ug/mi] | MIC values, Haemophilus parasuis (Haemophilus parasuis) [ug/mi] | MIC values, Staphylococcus aureus CVCC26003 [6] [ug/mi] | SMILES | Animal survival rate (surviving/total animals) [1] | other results
1 | – | – | – | – | – | CCCN1C[C@@H](C)[C@@H](O)[C@](C)(O)[C@H](CC)OC(=O)[C@H](C)[C@H](OC2C[C@@](C)(OC)[C@](O)(CN(C)CC)[C@H](C)O2)[C@H](C)[C@@H](O[C@@H]2O[C@H](C)C[C@H](N(C)C)[C@H]2O)[C@](C)(O)C[C@H]1C (stereo partly drawn) [syzx-213] | 9/10 | LD50 at 7 days [2]: 2790 mg/kg
2 | – | – | – | – | – | CC[C@@H]1OC(=O)[C@H](C)[C@H](OC2C[C@@](C)(OC)[C@](O)(CN3CCOCC3)[C@H](C)O2)[C@@H](C)[C@@H](O[C@@H]2O[C@H](C)C[C@H](N(C)C)[C@H]2O)[C@](C)(O)C[C@@H](C)NC[C@@H](C)[C@H](O)[C@]1(C)O (stereo partly drawn) [syzx-5, (2R,3S,4R,5S,8R,10R,11R,12S,13S,14R)-13-[(2,6-dideoxy-3-C-methyl-3-O-methyl-4-C-[(morpholinyl)methyl]-α-L-ribopyranosyl)oxy]-2-ethyl-3,4,10-trihydroxy-3,5,8,10,12,14-hexamethyl-11-[[3,4,6-trideoxy-3-(dimethylamino)-β-D-xylo-hexopyranosy]oxy]-1-oxa-7-azacyclopentadecan-15-one] | 7/10 | LD50 at 7 days [2]: 2730 mg/kg
3 | – | – | – | – | – | CC[C@@H]1OC(=O)[C@H](C)[C@H](OC2C[C@@](C)(OC)[C@](O)(CN3CCCCC3)[C@H](C)O2)[C@@H](C)[C@@H](O[C@@H]2O[C@H](C)C[C@H](N(C)C)[C@H]2O)[C@](C)(O)C[C@@H](C)NC[C@@H](C)[C@H](O)[C@]1(C)O (stereo partly drawn) [syzx-15, (2R,3S,4R,5S,8R,10R,11R,12S,13S,14R)-13-[(2,6-dideoxy-3-C-methyl-3-O-methyl-4-C-[piperidinylmethyl]-α-L-ribopyranosyl)oxy]-2-ethyl-3,4,10-trihydroxy-3,5,8,10,12,14-hexamethyl-11-[[3,4,6-trideoxy-3-(dimethylamino)-β-D-xylo-hexopyranosy]oxy]-1-oxa-7-azacyclopentadecan-15-one] | 8/10 | LD50 at 7 days [2]: 2660 mg/kg
4 | – | – | – | – | – | CC[C@@H]1OC(=O)[C@H](C)[C@H](OC2C[C@@](C)(OC)[C@](O)(CNCc3cccc(OC)c3)[C@H](C)O2)[C@@H](C)[C@@H](O[C@@H]2O[C@H](C)C[C@H](N(C)C)[C@H]2O)[C@](C)(O)C[C@@H](C)NC[C@@H](C)[C@H](O)[C@]1(C)O (stereo partly drawn) [syzx-35, (2R,3S,4R,5S,8R,10R,11R,12S,13S,14R)-13-[(2,6-dideoxy-3-C-methyl-3-O-methyl-4-C-[[3-methoxybenzyl-amino]-methyl]-α-L-ribopyranosyl)oxy]-2-ethyl-3,4,10-trihydroxy-3,5,8,10,12,14-hexamethyl-11-[[3,4,6-trideoxy-3-(dimethylamino)-β-D-xylo-hexopyranosy]oxy]-1-oxa-7-azacyclopentadecan-15-one] | 7/10 | Animal survival rate [1]: 70%
5 | – | – | – | – | – | CC[C@@H]1OC(=O)[C@H](C)[C@H](OC2C[C@@](C)(OC)[C@](O)(CNCc3cnc(C)cn3)[C@H](C)O2)[C@@H](C)[C@@H](O[C@@H]2O[C@H](C)C[C@H](N(C)C)[C@H]2O)[C@](C)(O)C[C@@H](C)NC[C@@H](C)[C@H](O)[C@]1(C)O (stereo partly drawn) [syzx-65, (2R,3S,4R,5S,8R,10R,11R,12S,13S,14R)-13-[(2,6-dideoxy-3-C-methyl-3-O-methyl-4-C-{[(5-methyl-pyrazin-2-yl-methyl)-amino]-methyl}-α-L-ribopyranosyl)oxy]-2-ethyl-3,4,10-trihydroxy-3,5,8,10,12,14-hexamethyl-11-[[3,4,6-trideoxy-3-(dimethylamino)-β-D-xylo-hexopyranosy]oxy]-1-oxa-7-azacyclopentadecan-15-one] | 9/10 | –
6 | – | – | – | – | – | CC[C@@H]1OC(=O)[C@H](C)[C@H](OC2C[C@@](C)(OC)[C@](O)(CNCC3CCCCC3)[C@H](C)O2)[C@@H](C)[C@@H](O[C@@H]2O[C@H](C)C[C@H](N(C)C)[C@H]2O)[C@](C)(O)C[C@@H](C)NC[C@@H](C)[C@H](O)[C@]1(C)O (stereo partly drawn) [syzx-67] | 8/10 | –
7 | – | – | – | – | – | CC[C@@H]1OC(=O)[C@H](C)[C@H](OC2C[C@@](C)(OC)[C@](O)(CNCCCOC)[C@H](C)O2)[C@@H](C)[C@@H](O[C@@H]2O[C@H](C)C[C@H](N(C)C)[C@H]2O)[C@](C)(O)C[C@@H](C)NC[C@@H](C)[C@H](O)[C@]1(C)O (stereo partly drawn) [syzx-66] | 8/10 | –
8 | – | – | – | – | – | CCCCCNC[C@]1(O)[C@H](C)OC(O[C@@H]2[C@@H](C)[C@@H](O[C@@H]3O[C@H](C)C[C@H](N(C)C)[C@H]3O)[C@](C)(O)C[C@@H](C)NC[C@@H](C)[C@H](O)[C@](C)(O)[C@H](CC)OC(=O)[C@@H]2C)C[C@@]1(C)OC (stereo partly drawn) [syzx-47, (2R,3S,4R,5S,8R,10R,11R,12S,13S,14R)-13-[(2,6-dideoxy-3-C-methyl-3-O-methyl-4-C-[[n-pentyl-amino]-methyl]-α-L-ribopyranosyl)oxy]-2-ethyl-3,4,10-trihydroxy-3,5,8,10,12,14-hexamethyl-11-[[3,4,6-trideoxy-3-(dimethylamino)-β-D-xylo-hexopyranosy]oxy]-1-oxa-7-azacyclopentadecan-15-one] | 9/10 | –
9 | – | – | – | – | – | CC[C@@H]1OC(=O)[C@H](C)[C@H](OC2C[C@@](C)(OC)[C@](O)(CNC3CCCC3)[C@H](C)O2)[C@@H](C)[C@@H](O[C@@H]2O[C@H](C)C[C@H](N(C)C)[C@H]2O)[C@](C)(O)C[C@@H](C)NC[C@@H](C)[C@H](O)[C@]1(C)O (stereo partly drawn) [syzx-30, (2R,3S,4R,5S,8R,10R,11R,12S,13S,14R)-13-[(2,6-dideoxy-3-C-methyl-3-O-methyl-4-C-[(cyclopentylamino)-methyl]-α-L-ribopyranosyl)oxy]-2-ethyl-3,4,10-trihydroxy-3,5,8,10,12,14-hexamethyl-11-[[3,4,6-trideoxy-3-(dimethylamino)-β-D-xylo-hexopyranosy]oxy]-1-oxa-7-azacyclopentadecan-15-one] | 8/10 | –
10 | 0.25 | 0.25 | 1 | 0.5 | 0.5 | CC[C@H]1OC(=O)[C@H](C)[C@@H](O[C@H]2C[C@@](C)(OC)[C@](O)(CNCCCC(OC)OC)[C@H](C)O2)[C@H](C)[C@@H](O[C@@H]2O[C@H](C)C[C@H](N(C)C)[C@H]2O)[C@](C)(O)C[C@@H](C)NC[C@H](C)[C@@H](O)[C@]1(C)O [syzx-56, (2R,3S,4R,5S,8R,10R,11R,12S,13S,14R)-13-[(2,6-dideoxy-3-C-methyl-3-O-methyl-4-C-[(4-dimethoxy-butylamino)-methyl]-α-L-ribopyranosyl)oxy]-2-ethyl-3,4,10-trihydroxy-3,5,8,10,12,14-hexamethyl-11-[[3,4,6-trideoxy-3-(dimethylamino)-β-D-xylo-hexopyranosy]oxy]-1-oxa-7-azacyclopentadecan-15-one] | – | –
11 | 2 | 0.25 | 8 | 2 | 4 | C=CCN(CC=C)C[C@]1(O)[C@H](C)O[C@@H](O[C@H]2[C@H](C)[C@@H](O[C@@H]3O[C@H](C)C[C@H](N(C)C)[C@H]3O)[C@](C)(O)C[C@@H](C)N(CCC)C[C@H](C)[C@@H](O)[C@](C)(O)[C@@H](CC)OC(=O)[C@@H]2C)C[C@@]1(C)OC [syzx-214] | – | –
12 | 128 | 0.5 | 4 | 1 | 1 | CC[C@H]1OC(=O)[C@H](C)[C@@H](O[C@H]2C[C@@](C)(OC)[C@](O)(CNc3ccc(Cl)cc3C)[C@H](C)O2)[C@H](C)[C@@H](O[C@@H]2O[C@H](C)C[C@H](N(C)C)[C@H]2O)[C@](C)(O)C[C@@H](C)NC[C@H](C)[C@@H](O)[C@]1(C)O [syzx-97, (2R,3S,4R,5S,8R,10R,11R,12S,13S,14R)-13-[(2,6-dideoxy-3-C-methyl-3-O-methyl-4-C-[(2-methyl-4-chloro-phenyl-amino)-methyl]-α-L-ribopyranosyl)oxy]-2-ethyl-3,4,10-trihydroxy-3,5,8,10,12,14-hexamethyl-11-[[3,4,6-trideoxy-3-(dimethylamino)-β-D-xylo-hexopyranosy]oxy]-1-oxa-7-azacyclopentadecan-15-one] | – | –
13 | 0.25 | 0.25 | 0.5 | 0.25 | 0.25 | CCCN1C[C@H](C)[C@@H](O)[C@](C)(O)[C@@H](CC)OC(=O)[C@H](C)[C@@H](O[C@H]2C[C@@](C)(OC)[C@](O)(CNC(C)CCc3ccccc3)[C@H](C)O2)[C@H](C)[C@@H](O[C@@H]2O[C@H](C)C[C@H](N(C)C)[C@H]2O)[C@](C)(O)C[C@H]1C (stereo partly drawn) [syzx-134] | – | –

Row | SMILES | MIC values, Actinobacillus pleuropneumoniae CVCC262 [3] [ug/mi] | MIC values, Streptococcus equines CVCC556 [4] [ug/mi] | MIC values, Pasteurella multocida CVCC399 [5] [ug/mi] | MIC values, Haemophilus parasuis (Haemophilus parasuis) [ug/mi] | MIC values, Staphylococcus aureus CVCC26003 [6] [ug/mi] | Animal survival rate (surviving/total animals) [1] | other results
14 | CCCN1C[C@H](C)[C@@H](O)[C@](C)(O)[C@@H](CC)OC(=O)[C@H](C)[C@@H](O[C@H]2C[C@@](C)(OC)[C@@H](O)[C@H](C)O2)[C@H](C)[C@@H](O[C@@H]2O[C@H](C)C[C@H](N(C)C)[C@H]2O)[C@](C)(O)C[C@H]1C [Gamithromycin, reference compound] | 0.25 | 0.5 | 0.25 | 0.25 | 0.25 | – | LD50 ([2]; per os, gavaged once, in 0.2% sodium carboxymethylcellulose, observed 7 days): 2165.2 mg/kg
